Test results taken from US7981883B2, “Substituted spiro-compounds and the use thereof for producing medicaments” (Gruenenthal GmbH, priority 2005, dated 2011).

Legend:
[1] = target: T1, VR1 (rat) (Rattus norvegicus, UniProt O35433); assay: Functional FLIPR Ca2+ inflow assay on rat-species vanilloid receptor 1 in rat dorsal root ganglia cells; assay type: cell-based; conditions: test compound 10 μM; for inhibition at 10 µM / VR1 (rat) (% inhibition compared to 10 μM CP): then 100 nM capsaicin after 5 min, relative to maximum inhibition with 10 μM capsaicin; for inhibition at 10 µM: read-out: VR1 (rat) (% inhibition compared to 10 μM CP); for activation at 10 µM / VR1 (rat) (% stimulation compared to 10 μM CP): Ca2+ signal relative to 10 μM capsaicin (CP); for activation at 10 µM: read-out: VR1 (rat) (% stimulation compared to 10 μM CP)
T1 construct: from tissue; host or cells: primary cells dissociated from rat dorsal root ganglia
T1 sequence (O35433 whole entry): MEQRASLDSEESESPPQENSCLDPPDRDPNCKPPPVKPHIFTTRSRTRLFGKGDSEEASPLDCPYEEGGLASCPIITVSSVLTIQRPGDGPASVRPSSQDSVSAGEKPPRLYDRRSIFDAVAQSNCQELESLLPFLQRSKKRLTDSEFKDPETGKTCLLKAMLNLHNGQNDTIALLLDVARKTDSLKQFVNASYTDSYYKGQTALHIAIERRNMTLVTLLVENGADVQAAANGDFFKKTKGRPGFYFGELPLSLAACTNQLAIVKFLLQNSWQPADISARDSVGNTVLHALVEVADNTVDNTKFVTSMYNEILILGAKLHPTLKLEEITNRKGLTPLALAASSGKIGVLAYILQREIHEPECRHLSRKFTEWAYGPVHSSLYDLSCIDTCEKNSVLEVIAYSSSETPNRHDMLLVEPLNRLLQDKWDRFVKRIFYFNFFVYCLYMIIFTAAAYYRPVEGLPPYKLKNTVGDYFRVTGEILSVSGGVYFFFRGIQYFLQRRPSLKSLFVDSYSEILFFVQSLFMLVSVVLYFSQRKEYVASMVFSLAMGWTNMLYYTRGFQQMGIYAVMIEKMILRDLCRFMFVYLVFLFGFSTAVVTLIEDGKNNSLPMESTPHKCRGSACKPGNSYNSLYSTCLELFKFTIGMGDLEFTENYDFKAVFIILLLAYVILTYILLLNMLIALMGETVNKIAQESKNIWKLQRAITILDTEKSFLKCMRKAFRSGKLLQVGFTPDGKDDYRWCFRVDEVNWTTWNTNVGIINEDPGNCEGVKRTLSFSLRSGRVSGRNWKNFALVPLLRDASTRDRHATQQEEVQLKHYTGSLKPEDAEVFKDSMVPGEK
Excerpt: I. Functional Testing Carried Out on the Vanilloid Receptor 1 (VR1/TRPV1 Receptor)
(§1) The agonistic or antagonistic effect of the substances to be tested can be determined on the rat-species vanilloid receptor 1 (VR1/TRPV1) using the following assay. According to this assay, the Ca^2+ inflow is quantified through the receptor channel using a Ca^2+-sensitive dye (type Fluo-4, Molecular Probes Europe BV, Leiden, Netherlands) in a fluorescent imaging plate reader (FLIPR, Molecular Devices, Sunnyvale, USA).
Complete medium: 50 mL HAMS F12 nutrient mixture (Gibco Invitrogen GmbH, Karlsruhe, Germany) with
10% by volume of FCS (foetal calf serum, Gibco Invitrogen GmbH, Karlsruhe, Germany, […]);
2 mM L-glutamine (Sigma, Munich, Germany);
1% by weight of AA solution (antibiotic/antimyotic solution, PAA, Pasching, Austria) and 25 ng/ml NGF medium (2.5 S, Gibco Invitrogen GmbH, Karlsruhe, Germany)
Cell culture plate: Poly-D-lysine-coated, black 96 well plates having a clear base (96 well black/clear plate, BD Biosciences, Heidelberg, Germany) were additionally coated with laminin (Gibco Invitrogen GmbH, Karlsruhe, Germany), the laminin being diluted with PBS (Ca—Mg-free PBS, Gibco Invitrogen GmbH, Karlsruhe, Germany) to a concentration of 100 μg/mL. Aliquots having a laminin concentration of 100 μg/mL were removed and stored at −20° C. The aliquots were diluted with PBS in a ratio of 1:10 to 10 μg/mL laminin and in each case 50 μL of the solution were pipetted into a recess in the cell culture plate. The cell culture plates were incubated for at least two hours at 37° C., the excess solution was removed by suction-filtration and the recesses were each washed twice with PBS. The coated cell culture plates were stored with excess PBS which was not removed until just before the feeding of the cells.
The vertebral column was removed from decapitated rats and placed immediately into cold HBSS buffer (Hank's buffered saline solution, Gibco Invitrogen GmbH, Karlsruhe, Germany), i.e. buffer located in an ice bath, mixed with 1% by volume (percent by volume) of an AA solution (antibiotic/antimyotic solution, PAA, Pasching, Austria). The vertebral column was cut longitudinally and removed together with fasciae from the vertebral canal. Subsequently, the dorsal root ganglia (DRG) were removed and again stored in cold HBSS buffer mixed with 1% by volume of an AA solution. The DRG, from which all blood remnants and spinal nerves had been removed, were transferred in each case to 500 μL of cold type 2 collagenase (PAA, Pasching, Austria) and incubated for 35 minutes at 37° C. After the addition of 2.5% by volume of trypsin (PAA, Pasching, Austria), incubation was continued for 10 minutes at 37° C. After complete incubation, the enzyme solution was carefully pipetted off and 500 μL of complete medium were added to each of the remaining DRG. The DRG were in each case suspended several times, drawn through cannulae No. 1, No. 12 and No. 16 using a syringe and transferred to a 50 mL Falcon tube which was filled up to 15 mL with complete medium. The contents of each Falcon tube was in each case filtered through a 70 μm Falcon filter element and centrifuged for 10 minutes at 1,200 rpm and room temperature. The resulting pellet was in each case taken up in 250 μL of complete medium and the number of cells determined.
The number of cells in the suspension was set to 3×10^5 per mL and 150 μL of this suspension were in each case introduced into a recess in the cell culture plates coated as described hereinbefore. In the incubator the plates were left for two to three days at 37° C., 5% by volume of CO2 and 95% relative humidity. […]

[2] = target: T2, VR1 (human) (Homo sapiens, UniProt Q8NER1); assay: Functional FLIPR Ca2+ inflow assay on VR1 (human), CHO K1 cells stably transfected with the VR1 gene; assay type: cell-based; conditions: test compound 10 μM; for inhibition at 10 µM / activation at 10 µM: CHO-K1; for inhibition at 10 µM / VR1 (human) (% inhibition compared to 10 μM CP): then 100 nM capsaicin after 5 min, relative to maximum inhibition with 10 μM capsaicin; for inhibition at 10 µM: read-out: VR1 (human) (% inhibition compared to 10 μM CP); for activation at 10 µM / VR1 (human) (% stimulation compared to 10 μM CP): Ca2+ signal relative to 10 μM capsaicin (CP); for activation at 10 µM: read-out: VR1 (human) (% stimulation compared to 10 μM CP)
T2 construct: expressed in transfected cells; host or cells: CHO K1 cells (ECACC)
T2 sequence (Q8NER1 whole entry): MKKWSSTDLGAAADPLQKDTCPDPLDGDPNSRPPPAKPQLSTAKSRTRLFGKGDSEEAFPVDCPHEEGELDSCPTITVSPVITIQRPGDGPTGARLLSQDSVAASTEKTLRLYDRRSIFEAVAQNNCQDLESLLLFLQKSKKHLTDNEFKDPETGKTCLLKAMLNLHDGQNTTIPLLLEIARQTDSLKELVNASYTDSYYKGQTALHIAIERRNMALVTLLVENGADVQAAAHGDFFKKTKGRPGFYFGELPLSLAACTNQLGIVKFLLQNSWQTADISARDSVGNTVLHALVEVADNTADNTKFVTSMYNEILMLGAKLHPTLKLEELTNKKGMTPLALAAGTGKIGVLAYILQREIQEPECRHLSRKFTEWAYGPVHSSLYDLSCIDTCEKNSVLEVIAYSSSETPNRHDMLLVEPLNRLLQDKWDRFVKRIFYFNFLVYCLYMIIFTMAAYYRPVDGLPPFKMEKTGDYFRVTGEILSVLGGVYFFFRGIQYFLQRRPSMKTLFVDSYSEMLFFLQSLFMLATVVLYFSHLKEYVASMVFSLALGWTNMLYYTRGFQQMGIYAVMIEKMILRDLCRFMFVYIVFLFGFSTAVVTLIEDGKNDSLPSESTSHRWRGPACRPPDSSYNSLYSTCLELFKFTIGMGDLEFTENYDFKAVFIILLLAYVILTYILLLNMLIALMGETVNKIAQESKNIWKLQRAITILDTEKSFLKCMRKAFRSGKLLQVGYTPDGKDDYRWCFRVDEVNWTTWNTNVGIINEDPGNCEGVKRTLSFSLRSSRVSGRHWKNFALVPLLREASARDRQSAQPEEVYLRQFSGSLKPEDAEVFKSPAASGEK
Excerpt: II. Functional Testing Carried Out on the Vanilloid Receptor (VR1)
as §1, with “can also” for “can”, “the” for “the rat-species”, “(VR1)” for “1 (VR1/TRPV1)”, “the” for “the receptor”
Chinese hamster ovary cells (CHO K1 cells, European Collection of Cell Cultures (ECACC) United Kingdom) were stably transfected with the VR1 gene. For functional testing, these cells were plated out on poly-D-lysine-coated black 96 well plates having a clear base (BD Biosciences, Heidelberg, Germany) at a density of 25,000 cells/well. The cells were incubated overnight at 37° C. and 5% CO2 in a culture medium (Ham's F12 nutrient mixture, 10% by volume of FCS (foetal calf serum), 18 μg/ml L-proline). The next day the cells were incubated with Fluo-4 (Fluo-4 2 μM, 0.01% by volume of Pluronic F127, Molecular Probes in HBSS (Hank's buffered saline solution), Gibco Invitrogen GmbH, Karlsruhe, Germany) for 30 minutes at 37° C. Subsequently, the plates were washed three times with HBSS buffer and after further incubation for 15 minutes at room temperature used for Ca^2+ measurement in a FLIPR assay. The Ca^2+-dependent fluorescence was measured before and after the addition of the substances to be tested (λex wavelength=488 nm, λem=540 nm). Quantification was carried out by measuring the highest fluorescence intensity (FC, Fluorescence Counts) over time.
The FLIPR protocol consists of 2 substance additions. First the compounds to be tested (10 μM) were pipetted onto the cells and the Ca^2+ inflow was compared with the control (capsaicin 10 μM) (% activation based on the Ca^2+ signal after the addition of 10 μM capsaicin). After 5 minutes' incubation, 100 nM of capsaicin were administered and the Ca^2+ inflow was also determined.
Desensitising agonists and antagonists led to suppression of the Ca^2+ inflow. The % inhibition was calculated compared to the maximum achievable inhibition with 10 μM of capsaicin.

SMILES | inhibition at 10 µM [1] [%] | activation at 10 µM [1] [%] | inhibition at 10 µM [2] [%] | activation at 10 µM [2] [%] | VR1 (rat) (% inhibition compared to 10 μM CP) [1] [%] | VR1 (rat) (% stimulation compared to 10 μM CP) [1] [%] | VR1 (human) (% inhibition compared to 10 μM CP) [2] [%] | VR1 (human) (% stimulation compared to 10 μM CP) [2] [%]
CC(C)(C)C1CCC2(CC1)CC(C(=O)NCc1ccc(N)cc1)=NO2 (stereo not shown) [Example 1, 8-tert-butyl-1-oxa-2-azaspiro[4.5]dec-2-ene-3-carboxylic acid-4-aminobenzylamide] | 71.3 | 44.7 | 23.6 | 20.7 |  |  |  | 
CC(C)(C)C1CCC2(CC1)CC(C(=O)NCc1ccc(NS(C)(=O)=O)cc1)=NO2 (stereo not drawn) [Example 2, trans-8-tert-butyl-1-oxa-2-azaspiro[4.5]dec-2-ene-3-carboxylic acid-4-methanesulphonylaminobenzylamide] |  |  |  |  | 100.87 | −15.97 | 58.09 | −0.32
CC(C)(C)C1CCC2(CC1)CC(C(=O)NCc1ccc(NS(C)(=O)=O)cc1)=NO2 (stereo not drawn) [Example 3, cis-8-tert-butyl-1-oxa-2-azaspiro[4.5]dec-2-ene-3-carboxylic acid-4-methanesulphonylaminobenzylamide] |  |  |  |  | 102.62 | 0.10 | 80.10 | −1.29
CC(C)(C)C1CCC2(CC1)CC(C(=O)Nc1cccc3cnccc13)=NO2 (stereo not shown) [Example 4, 8-tert-butyl-1-oxa-2-azaspiro[4.5]dec-2-ene-3-carboxylic acid isoquinolin-5-ylamide] | 73.7 | -0.54 | 76.3 | -0.33 |  |  |  | 
CC(C)(C)[C@H]1CC[C@]2(CC1)CC(C(=O)N1CCN(c3ncccc3C(F)(F)F)CC1)=NO2 [Example 8, trans-(8-tert-butyl-1-oxa-2-azaspiro[4.5]dec-2-en-3-yl)-[4-(3-trifluoromethylpyridin-2-yl)piperazin-1-yl]methanone] |  |  |  |  | 97.15 | 0.57 | 20.73 | 0.22
CC(C)(C)[C@H]1CC[C@]2(CC1)CC(C(=O)N1CCN(c3ccc(O)cc3)CC1)=NO2 [Example 10, trans-(8-tert-butyl-1-oxa-2-azaspiro[4.5]dec-2-en-3-yl)-[4-(4-hydroxyphenyl)piperazin-1-yl]methanone] |  |  |  |  | 22.95 | 8.77 | 17.54 | 2.84
CC(C)(C)[C@H]1CC[C@@]2(CC1)CC(C(=O)N1CCN(c3ccc(O)cc3)CC1)=NO2 [Example 11, cis-(8-tert-butyl-1-oxa-2-azaspiro[4.5]dec-2-en-3-yl)-[4-(4-hydroxyphenyl)piperazin-1-yl]methanone] |  |  |  |  | 62.42 | −0.37 | 28.56 | −0.05
CC(C)(C)C1CCC2(CC1)CC(C(=O)N1CCc3cc(O)c(O)cc3C1)=NO2 (stereo not shown) [Example 12, (8-tert-butyl-1-oxa-2-azaspiro[4.5]dec-2-en-3-yl)-(6,7-dihydroxy-3,4-dihydro-1H-isoquinolin-2-yl)methanone] | 94.3 | 112 | 79.9 | 101 |  |  |  | 
CC(C)(C)[C@H]1CC[C@@]2(CC1)CC(C(=O)N1CCN(c3nsnc3Cl)CC1)=NO2 [Example 17, cis-(8-tert-butyl-1-oxa-2-azaspiro[4.5]dec-2-en-3-yl)-[4-(4-chloro-[1,2,5]thiadiazol-3-yl)piperazin-1-yl]methanone] |  |  |  |  | 58.92 | 0.33 | 14.95 | −0.05
COc1cc2c(cc1OC)CN(C(=O)C1=NO[C@]3(CC[C@H](C(C)(C)C)CC3)C1)CC2 [Example 18, trans-(8-tert-butyl-1-oxa-2-azaspiro[4.5]dec-2-en-3-yl)-(6,7-dimethoxy-3,4-dihydro-1H-isoquinolin-2-yl)methanone] |  |  |  |  | 97.62 | 84.04 | 22.05 | 24.24
COc1cc2c(cc1OC)CN(C(=O)C1=NO[C@]3(CC[C@@H](C(C)(C)C)CC3)C1)CC2 [Example 19, cis-(8-tert-butyl-1-oxa-2-azaspiro[4.5]dec-2-en-3-yl)-(6,7-dimethoxy-3,4-dihydro-1H-isoquinolin-2-yl)methanone] |  |  |  |  | 95.49 | 70.81 | 22.55 | 13.41
CC(C)(C)C1CCC2(CC1)CC(C(=O)N1CCCN(c3ncccc3Cl)CC1)=NO2 (stereo not drawn) [Example 21, trans-(8-tert-butyl-1-oxa-2-azaspiro[4.5]dec-2-en-3-yl)-[4-(3-chloropyridin-2-yl)-[1,4]diazepan-1-yl]methanone] |  |  |  |  | 52.32 | 0.37 | 6.75 | −0.05
CC(C)(C)[C@H]1CC[C@@]2(CC1)CC(C(=O)N1CCCN(c3ncccc3Cl)CC1)=NO2 [Example 22, cis-(8-tert-butyl-1-oxa-2-azaspiro[4.5]dec-2-en-3-yl)-[4-(3-chloropyridin-2-yl)-[1,4]diazepan-1-yl]methanone] |  |  |  |  | 16.63 | −0.37 | 0.14 | 0.13
